From patent US5521193A, “Benzimidazole compounds” (G. D. Searle & Co., priority 1995, dated 1996)

Columns and labels:
5-HT3 = test: Bezold-Jarisch Reflex (inhibition of 5-HT-induced bradycardia in anesthetized mice); type: in vivo; conditions: i.p., 30 min before 5-HT 0.25 mg/kg i.v.; >50 percent reduction in bradycardic response vs vehicle considered significant; pentobarbital anesthetized mice
Procedure: (§1) 5-HT4 agonist activity was determined in the in vitro rat tunice muscularis mucosae (TMM) assay. (Baxter et el., Naunyn Schmied Arch. Pharmacol, 1991, 343,439). The 5-HT4 agonist or antagonist activity and/or 5-HT3 antagonist activity of the compounds of the invention herein, can be determined by the assays as described herein, without undue experimention.
The compound to be evaluated was administered i.p. (mg/kg) to a group of 3 mice. […] A greater than 50 percent (>50) reduction in the bradycardic response relative to vehicle-treated control mice was considered significant.
This method has been described by Saxena, P. R. and Lawang, A., Arch. Int. Pharmacodyn., 277:235-252, 1985.
The assay results for the compounds of the present invention and their Minimum Effective Dose (MED) and the reference compounds and their MEDs are recorded in Table I.

5-HT3 receptor = target: T1, 5-HT3 receptor (Rattus norvegicus, UniProt P35563); test: Serotonin (5-HT3) radioligand binding, [3H]-GR65630, rat brain cortex membranes; conditions: Ki, [3H]-GR65630 0.2 nM; 60 min, 22° C.
T1 construct: Brain cortices were obtained from male rats and a membrane fraction prepared by standard techniques; from tissue; host or cells: rat brain cortex membranes
T1 sequence (P35563 24-483): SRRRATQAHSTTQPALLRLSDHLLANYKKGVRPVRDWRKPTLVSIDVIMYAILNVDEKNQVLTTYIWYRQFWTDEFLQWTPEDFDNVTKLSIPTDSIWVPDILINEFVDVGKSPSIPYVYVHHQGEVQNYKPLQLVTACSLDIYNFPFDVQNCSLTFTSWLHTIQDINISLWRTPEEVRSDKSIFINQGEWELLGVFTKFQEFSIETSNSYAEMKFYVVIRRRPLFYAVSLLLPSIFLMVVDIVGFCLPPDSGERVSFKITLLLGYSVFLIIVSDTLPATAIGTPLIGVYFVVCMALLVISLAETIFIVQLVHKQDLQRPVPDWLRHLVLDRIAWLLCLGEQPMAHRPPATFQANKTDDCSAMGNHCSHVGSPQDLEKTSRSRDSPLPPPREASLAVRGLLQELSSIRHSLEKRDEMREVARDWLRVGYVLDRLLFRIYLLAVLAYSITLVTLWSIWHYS
Procedure: GR65630 binds to the 5-HT3 receptor. Brain cortices were obtained from male rats and a membrane fraction prepared by standard techniques. 0.04 mg of membrane prep was incubated with 0.2 nM […] for 60 minutes at 22° C. […] Membranes were filtered and washed times and the filters were counted to determine [3H]-GR65630 specifically bound. Kilpatrick G. J., Jones B. J. and Tyers M. B. Identification and distribution of 5-HT3 receptors in rat brain using radioligand binding assay. Nature, 330 : 746-748, 1987.

5-HT4 receptor = target: T2, 5-HT4 receptor (Rattus norvegicus, UniProt Q62758); test: biochemical; conditions: carbachol (3 μM)-contracted rat esophagus TMM; 37° C.; tissues from 5 rats; read-out: 5-HT4 Agonism (Rat TMM) In Vitro Assay: EC50 Values
T2 construct: One 2 cm segment of intrathoracic esophagus proximal to the diaphragm was removed from male rats; from tissue; host or cells: rat intrathoracic oesophagus, inner tunica muscularis mucosae
T2 sequence (Q62758 whole entry): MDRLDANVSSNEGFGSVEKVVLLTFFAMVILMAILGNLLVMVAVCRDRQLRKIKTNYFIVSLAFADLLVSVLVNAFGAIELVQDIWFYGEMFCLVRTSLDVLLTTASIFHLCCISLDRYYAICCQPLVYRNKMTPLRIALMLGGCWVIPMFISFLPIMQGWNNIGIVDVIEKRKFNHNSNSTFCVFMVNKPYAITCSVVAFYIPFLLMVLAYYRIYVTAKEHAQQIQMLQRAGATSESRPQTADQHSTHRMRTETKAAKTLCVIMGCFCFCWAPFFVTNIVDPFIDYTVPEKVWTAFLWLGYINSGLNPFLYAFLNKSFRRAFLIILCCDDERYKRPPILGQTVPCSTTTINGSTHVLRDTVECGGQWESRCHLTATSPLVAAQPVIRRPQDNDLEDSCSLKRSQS
Procedure: as §1
Agonist activity was determined utilizing relaxation of carbachol-contracted rat tunica muscularis mucosae. One 2 cm segment of intrathoracic esophagus proximal to the diaphragm was removed from male rats, weighing approximately 300 gm, and the outer muscle layers removed. The inner tunica muscularis mucosa was mounted under 0.2-0.3 g of tension in a tissue bath containing oxygenated Tyrode's solution at 37° C. […] Following a 30 min equilibrium period, tissues were isometrically contracted with carbachol (3 μM) to obtain a tonic contraction. A stable plateau was obtained within 20 min when test compound was added cumulatively to relax the muscle strip. EC50 values were obtained for each agonist in tissues from 5 rats.

Row | Compound | Minimum Effective Dose (MED) (5-HT3) [mg/kg] | Ki (5-HT3 receptor) [nM] | EC50 (5-HT4 receptor) [nM]
1 | CN1[C@@H]2C[C@@H](OC(=O)[C@H](CO)c3ccccc3)C[C@H]1[C@@H]1O[C@@H]12 [scopolamine] | 2.5 |  | 
2 | CC(C)n1c(=O)n(C(=O)NCCC23CCCN2CCC3)c2ccccc21 [Example 13, N-[2-(hexahydro-7aH-pyrrolizin-7a-yl)ethyl]-2,3-dihydro-3-(1-methylethyl) 2-oxo-1H-benzimidazole-1-carboxamide] | 10 | 120 | 179
3 | CCN(CC)CCNC(=O)c1cc(Cl)c(N)cc1OC [metoclopramide] | 5 |  | 
